Assay results as given in patent US20250154212A1, “METHOD OF DISRUPTING MEMORY AND LIPOPEPTIDE FOR USE IN SUCH METHOD” (The Research Foundation for The State University of New York, priority 2023, published 2025).
Entries after “also recorded” stand apart in the source; their conditions may differ. Where no end group is shown, it is not given here. The star is where a group is joined. Myristoyl = CCCCCCCCCCCCCC(=O)*

Experiments:
KIBRA-PKMζ interaction = target: T1, KIBRA-PKMζ interaction (Homo sapiens, UniProt Q05513); test: BiFC (split-Venus) assay of KIBRA-PKMζ interaction in transfected HEK293T cells; type: cell-based; conditions: for effect on KIBRA-PKMζ interaction/dimerization (BiFC): 10 μM
T1 construct: expressed in transfected cells; host or cells: HEK293T
T1 sequence (Q05513 1-409 isoform Q05513-2): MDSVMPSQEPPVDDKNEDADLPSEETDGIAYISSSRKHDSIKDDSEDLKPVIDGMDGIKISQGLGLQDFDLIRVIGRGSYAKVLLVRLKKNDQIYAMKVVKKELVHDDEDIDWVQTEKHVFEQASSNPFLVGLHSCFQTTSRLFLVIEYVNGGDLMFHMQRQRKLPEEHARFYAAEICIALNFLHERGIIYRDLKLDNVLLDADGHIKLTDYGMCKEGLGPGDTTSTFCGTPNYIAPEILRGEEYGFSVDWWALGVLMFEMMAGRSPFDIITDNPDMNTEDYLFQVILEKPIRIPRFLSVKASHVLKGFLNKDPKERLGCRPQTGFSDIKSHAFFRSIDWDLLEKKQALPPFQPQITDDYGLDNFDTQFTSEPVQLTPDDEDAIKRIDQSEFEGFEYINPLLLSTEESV
Description: (§1) KIBRA-PKMζ BiFC was performed as previously described (28), using pVen1-FLAG-KIBRA and pVen2-HA-PKMζ, in which PKMζ was cloned between EcoR1 and BamH1 sites. The constructs pVen1 and pVen2 encode the N-terminus (amino acids 1-154) and C-terminus (amino acids 155-238) of the Venus protein, respectively, and the Venus fragments were on the N-terminal of the fusion proteins. pVen2-HA-PKMζ[PKCι/λ-P291Q;F297S] was generated by site-directed mutagenesis using forward-cctggagAagcAAatceggatcccccggtCcctgtccgte and reverse-gacggacaggGaccgggggatccggatTTgctTctccagg primers and the QuickChange II XL Site-Directed Mutagenesis Kit (Agilent Technologies), following manufacturer's instructions. Additional pVen2-HA-PKC isoforms and pVen2-HA-CaMKIIα in the pVen2-HA vector were generated by cloning the N-terminus of the coding sequence of each kinase (table S1) to obtain an in-frame fusion at the C-terminus of the pVen2-HA. Human versions of KIBRA and kinases were used, and all PCR amplified sequences and constructs were verified by DNA sequencing.
HEK293T cells were cultured in Dulbecco's Modified Eagle's Medium supplemented with 10% heat-inactivated fetal bovine serum, 100 U/ml penicillin, […] streptomycin, 2 mM glutamine, and 10 mM HEPES in a T75 tissue culture flask with canted neck and ventilated cap. Twenty-four hours prior to transfection, 1×10^5 HEK293T cells in 1 ml of media were plated on poly-D-lysine-treated coverslips in 24-well plates. One hour prior to transfection, 0.5 ml of the media was removed from each well, and ζ-stat or K-ZAP was added to the media that had been removed. The remaining media in each well was then discarded and substituted with the 0.5 ml pre-conditioned media containing ζ-stat or K-ZAP at designated concentrations. For transfection a total of 50 ng of DNA was delivered to each well using Lipofectamine 3000 (Invitrogen) and OptiMEM 1× reduced serum medium (Invitrogen) at a plasmid-to-plasmid ratio of 1:1. The amount of transfected DNA was optimized to produce relatively low concentrations of proteins during overexpression. […]

[1] = tested on: KIBRA with novel PKCs (PKCδ, PKCε, PKCη, PKCθ); test: BiFC assay of KIBRA with novel PKCs in HEK293T cells; type: cell-based, human
Description: as §1
HEK293T cells were cultured in Dulbecco's Modified Eagle's Medium supplemented with 10% heat-inactivated fetal bovine serum, 100 U/ml penicillin, […] streptomycin, 2 mM glutamine, and 10 mM HEPES in a T75 tissue culture flask with canted neck and ventilated cap. […]

## O=S(=O)(O)c1cc(O)c2c(S(=O)(=O)O)cc(S(=O)(=O)O)cc2c1 [ζ-stat, 1-naphthol-3,6,8-trisulphonic acid]
KIBRA-PKMζ interaction; listed as z-stat
  effect on KIBRA-PKMζ interaction/dimerization (BiFC): inhibits KIBRA interaction with PKMz; also recorded: decreases BIFC
KIBRA-PKMζ interaction; dose-response curve, n's=4, read-out: IC50 for inhibition of KIBRA-PKMζ interaction (BiFC)
  IC50: ~1000 nM
[1]
  effect on BiFC of KIBRA with novel PKCs: has no effect

## myr-N-FVRNSLERRSVRMKRPS-C (Myristoyl-FVRNSLERRSVRMKRPS) [K-ZAP]
KIBRA-PKMζ interaction
  effect on KIBRA-PKMζ interaction/dimerization (BiFC): inhibits PKMz-KIBRA dimerization
